Earlier results in PubChem BioAssay AID1259409 (Chemical Carcinogenesis Research Information System (CCRIS), 2018).

System: rodent chemically induced tumor inhibition, incidence and multiplicity
Assay: CCRIS tumor inhibitor studies
Conditions: Carcinogen: N-methyl-N-nitrosourea (684-93-5), Dose [Inhibitor]: 0, study duration 4 wks, Dose [Inhibitor]: 0, study duration 4 wks, Route [Inhibitor]: Oral, Species: Rat, Strain/Sex: F344/DuCrj/Male, Dose [Carcinogen]: 2 mg/rat, 3 x a wk for 4 wks

Measured: outcome

C[Si](C)(C)c1cc(C(=O)Nc2ccc(C(=O)O)cc2)cc([Si](C)(C)C)c1
colon: tumors: 0.8 mg/kg by gavage 5 d/wk for 1 wk, 0.8 mg/kg by gavage 5 d/wk for 1 wk | 0.8 mg/kg by gavage 5 d/wk for 4 wks, 0.8 mg/kg by gavage 5 d/wk for 4 wks | 8 mg/kg by gavage 5 d/wk for 1 wk, 8 mg/kg by gavage 5 d/wk for 1 wk | 8 mg/kg by gavage 5 d/wk for 4 wks, 8 mg/kg by gavage 5 d/wk for 4 wks
